Experimental findings from DBAASP are described below.

Converted amounts (≈) assume the structure as drawn.

Holding throughout (experiment): ≥ marks a high value that may be exact or a test limit, other limits are often not marked, values filed in µg/mL are converted to µM
In experiment [1] the test system is Staphylococcus saprophyticus ATCC 15305.
Experiment [2] relates to Neisseria gonorrhoeae ATCC 49226.
Experiment [3] concerns Shigella sonnei ATCC 25931.
In experiment [4] the test system is Serratia sp. ATCC 39006.
The subject of experiment [5] is Micrococcus luteus ATCC 49732.
Experiment [6] has as its system Staphylococcus epidermidis ATCC 12228.
In experiment [7] the test system is Klebsiella pneumoniae ATCC 700603.
Experiment [8] concerns Salmonella enterica subsp. enterica serovar Typhimurium ATCC 14028.
Experiment [9] deals with Proteus vulgaris ATCC 49132.
Experiment [10] has as its system Escherichia coli ATCC 25922.
Experiment [11] concerns Enterococcus faecalis ATCC 29212.
For experiment [12], the system named is Staphylococcus aureus ATCC 43330.
In experiment [13] the test system is Streptococcus agalactiae ATCC 12386.
Experiment [14] deals with Staphylococcus aureus ATCC 25923.
The subject of experiment [15] is Escherichia coli BL21.
Experiment [16] relates to Bacillus subtilis ISW 1214.
In experiment [17] the test system is Enterococcus faecium CGMCC 1.2334.
Experiment [18] concerns Enterobacter cloacae CGMCC 1.58.
The subject of experiment [19] is Bacillus cereus AS1.126.
For experiment [20], the system named is Pseudomonas aeruginosa 0108.
Experiment [21] concerns Escherichia coli AS1.349.
Experiment [22] deals with Staphylococcus aureus AS1.72.
Experiment [23] concerns Staphylococcus epidermidis.
Experiment [24] relates to Pseudomonas aeruginosa CGMCC 1.860.
Experiment [25] concerns Proteus mirabilis CICC 22931.
Experiment [26] relates to Enterococcus faecalis CGMCC 1.595.
The test system of experiment [27] is Klebsiella pneumoniae subsp. pneumoniae CGMCC 1.176.
Experiment [28] relates to Staphylococcus epidermidis CICC 23664.

The MIC is the least concentration at which growth counts as inhibited. Low values mean inhibition by little substance, high ones a need for much substance. Turning to `CC[C@H](C)[C@H](NC(=O)CNC(=O)[C@H](C)NC(=O)[C@H](C)NC(=O)[C@@H](NC(=O)[C@@H](NC(=O)[C@H](CC(N)=O)NC(=O)[C@@H](NC(=O)[C@H](C)NC(=O)[C@@H](NC(=O)[C@@H]1CCCN1C(=O)[C@@H](NC(=O)[C@H](CC(C)C)NC(=O)[C@@H]1CCCN1C(=O)[C@H](Cc1c[nH]c2ccccc12)NC(=O)[C@H](Cc1ccccc1)NC(=O)[C@H](CCCN=C(N)N)NC(=O)[C@H](CCCCN)NC(=O)[C@@H](NC(=O)[C@@H](N)CCCN=C(N)N)C(C)C)C(C)C)C(C)C)[C@@H](C)CC)[C@@H](C)O)C(C)C)C(=O)N[C@@H](CC(N)=O)C(=O)N[C@@H](CC(C)C)C(=O)N[C@@H](Cc1ccc(O)cc1)C(=O)N[C@@H](CCCCN)C(=O)N[C@@H](C)C(=O)N[C@H](C(=O)N[C@@H](CCCN=C(N)N)C(=O)N[C@@H](CCCN=C(N)N)C(=O)N[C@@H](CCCCN)C(N)=O)[C@@H](C)CC` [RVKRFWPLVPVAINTVAAGINLYKAIRRK], the MIC was determined as 1.22 µM (≈ 4.1 µg/mL) in experiment [1]; 2.49 µM (≈ 8.33 µg/mL) in [2]; 0.537 µM (≈ 1.8 µg/mL) in experiment [3]; 0.63 µM (≈ 2.11 µg/mL) in experiment [4]; 0.63 µM (≈ 2.11 µg/mL) in [5]; 2.49 µM (≈ 8.33 µg/mL) in experiment [6]. Also, the MIC came out at 2.15 µM (≈ 7.21 µg/mL) in experiment [7]; 2.15 µM (≈ 7.21 µg/mL) in [8]; 2.49 µM (≈ 8.33 µg/mL) in experiment [9]; 0.934 µM (≈ 3.13 µg/mL) in [10]; 0.934 µM (≈ 3.13 µg/mL) in experiment [11]; 3.73 µM (≈ 12.5 µg/mL) in experiment [12]. The MIC stood at 1.4 µM (≈ 4.7 µg/mL) in experiment [13] and 1.22 µM (≈ 4.1 µg/mL) in [14].
As for `CC(=O)NCC(=O)N[C@@H](Cc1c[nH]c2ccccc12)C(=O)N[C@@H](CCC(N)=O)C(=O)N[C@@H](CC(C)C)C(=O)N[C@@H](CC(C)C)C(=O)N[C@@H](C)C(=O)N[C@@H](CC(C)C)C(=O)N[C@@H](Cc1cnc[nH]1)C(=O)N[C@@H](CC(C)C)C(=O)N[C@@H](CCC(N)=O)C(=O)N[C@@H](CC(C)C)C(=O)N[C@@H](CC(C)C)C(=O)NCC(=O)N[C@@H](CC(C)C)C(=O)N[C@@H](Cc1cnc[nH]1)C(=O)N[C@@H](CC(C)C)C(=O)N[C@@H](CC(C)C)C(=O)N[C@@H](CCC(N)=O)C(=O)N[C@@H](CC(C)C)C(=O)N[C@@H](C)C(=O)N[C@@H](CC(C)C)C(=O)N[C@@H](CC(C)C)C(=O)N[C@@H](CCC(N)=O)C(=O)N[C@@H](CCCN=C(N)N)C(=O)N[C@@H](CCCN=C(N)N)C(=O)N[C@@H](CCCN=C(N)N)C(N)=O` [GWQLLALHLQLLGLHLLQLALLQRRR], the MIC in experiment [15] and in experiment [16] was not below 160 µM each time.
Regarding `CC[C@H](C)[C@H](NC(=O)[C@H](CCCCN)NC(=O)[C@H](CO)NC(=O)[C@H](Cc1c[nH]c2ccccc12)NC(=O)[C@@H](NC(=O)[C@H](CCCCN)NC(=O)[C@H](CCCCN)NC(=O)[C@@H](N)Cc1c[nH]c2ccccc12)[C@@H](C)CC)C(=O)N[C@@H](CCCCN)C(=O)N[C@@H](CCCCN)C(=O)N[C@@H](CC(C)C)C(=O)N[C@@H](CC(C)C)C(=O)N[C@@H](CCCCN)C(N)=O` [WKKIWSKIKKLLK], the MIC in experiment [17] worked out at 3.13 µM (≈ 5.32 µg/mL); in experiment [18], 3.13 µM (≈ 5.32 µg/mL); in experiment [19] it was 3.13 µM (≈ 5.32 µg/mL); in experiment [20], 12.5 µM (≈ 21.2 µg/mL); in experiment [21] it was 6.25 µM (≈ 10.6 µg/mL); in experiment [22], 3.13 µM (≈ 5.32 µg/mL). Moreover, the MIC in experiment [23] worked out at 3.12 µM (≈ 5.3 µg/mL); in experiment [24], 6.25 µM (≈ 10.6 µg/mL); in experiment [25], 6.25 µM (≈ 10.6 µg/mL); in experiment [26] it was 1.56 µM (≈ 2.65 µg/mL); in experiment [27] it was 25 µM (≈ 42.5 µg/mL); in experiment [28] it was 1.56 µM (≈ 2.65 µg/mL).
